The assay relates to M. tuberculosis H37Rv growth inhibition. The experiment in a line: M. tuberculosis H37Rv growth inhibitors, H37Rv strain (AID 1626). The note with it: for IC90: measured here: IC90 against H37Rv; for CC50: measured here: Vero cell cytotoxicity.

Consider `Cc1nc(NC(=O)c2ccccc2)sc1Cc1ccc2c(c1)OCO2`, for which the IC50 is 60.5 µM, the IC90 was more than 100 µM and the CC50 is more than 40 µM.

Consider `Cc1sc2cc3c(c(C(=O)c4ccccc4)[n+]2c1C)-c1cccc2cccc-3c12`, for which the IC50 was 1.52 µM, the IC90 is 2.33 µM and the CC50 was more than 40 µM.

Regarding `CCOC(=O)c1ccc(NC(=O)CSC2=NC(=O)C(CC)C(=O)N2)cc1` (stereo not given), the IC50 is 24.3 µM and the IC90 was more than 100 µM.

For `Cc1cc(NC(=O)C2CCCCC2)n(-c2nc3ccccc3[nH]2)n1`, the IC50 is 2.54 µM, the IC90 was found to be 5.5 µM and the CC50 was found to be 38 µM.

With `COc1ccc(NC(=O)CSc2ncn(-c3ccccc3)n2)cc1Cl`, the IC90 was more than 100 µM.

For `CCOC(=O)c1cnc(-n2nc(C)cc2C)nc1NCCc1ccccc1`, the IC50 is 0.688 µM, the IC90 is 1.06 µM and the 50% cytotoxic concentration (CC50) is more than 40 µM.

In the case of `Nc1c2c(nc3ccn(Cc4ccccc4)c(=O)c13)CCC2`, the IC50 was 7.11 µM, the IC90 amounted to 15.3 µM and the CC50 was more than 40 µM.

Regarding `CCCC(=O)OCCNc1cc(SCc2ccco2)c2nonc2c1[N+](=O)[O-]`, the IC50 is 4.2 µM and the IC90 is 9.07 µM.

Consider `O=C(/C=C/c1ccco1)Nc1nc(-c2ccccn2)cs1`, for which the IC50 was 0.446 µM, the IC90 was determined as 3.54 µM and the CC50 is more than 40 µM.

As to `CCCC(=O)N1CCN(c2ccc(NC(=O)c3ccc([N+](=O)[O-])o3)cc2Cl)CC1`, the IC50 is less than 0.195 µM, the IC90 was less than 0.195 µM and the CC50 came to 1.8 µM.

For the compound `CCC(C)c1ccc(NC(=O)COC(=O)C2=COCCO2)cc1` (stereo not given), the IC50 is 4.54 µM and the IC90 is more than 100 µM.

On to `Oc1ccc(COCc2ccccc2)c2cccnc12`, for which the IC50 was 3 µM, the IC90 worked out at 3.31 µM and the CC50 worked out at 1.6 µM.

In the case of `COc1ccc(C(CCN2CCCC(C)C2)c2c(OC)cc(OC)c3c(-c4ccccc4)cc(=O)oc23)cc1` (stereo not given), the IC50 is 7.53 µM, the IC90 is 10.2 µM and the 50% cytotoxic concentration (CC50) was determined as 14.1 µM.

`COc1ccc(NC(=O)N2CCN(c3nc(-c4cccc(OC)c4)cs3)CC2)cc1`: the concentration for half-maximal inhibition (IC50) is 9.47 µM, the IC90 was more than 100 µM and the CC50 is more than 40 µM.

Regarding `CCOC(=O)C(C)Sc1ncc(-c2ccc(Cl)cc2)cn1` (stereo not given), the IC50 is 2.71 µM and the IC90 was 5.04 µM.

Regarding `Cc1cccc(NC(=O)c2nc[nH]c2C(=O)N[C@@H](CC(C)C)C(=O)OCc2ccccc2)c1`, the IC50 is 23 µM, the IC90 was more than 100 µM and the CC50 was found to be 39.1 µM.

For `CSc1nc2ccc(NC(=O)C3CC(=O)N(Cc4ccccc4)C3)cc2s1` (stereo not given), the IC50 is 5.17 µM and the IC90 came out at 7.75 µM.

On to `O=C(CCl)Nc1cn(-c2ccccc2)nc1-c1ccccc1`, for which the IC50 was 9.87 µM, the IC90 amounted to 38.6 µM and the 50% cytotoxic concentration (CC50) was 9.49 µM.

For the compound `Cc1ccc(C2CC(C(F)(F)F)n3nc(C(=O)NCc4ccco4)cc3N2)cc1` (stereo not given), the IC50 was 0.92 µM and the IC90 is 1.79 µM.

`CCOc1ccc(N2C(=O)c3ccc(C(=O)OCC(=O)N(CC)C4CCS(=O)(=O)C4)cc3C2=O)cc1` (stereo not given) showed an IC90 of more than 100 µM.

With `O=C(Nc1nccs1)c1sc2ccccc2c1Cl`, the IC50 was 15.1 µM, the IC90 is more than 100 µM and the CC50 was more than 40 µM.

As to `Cc1nc(-c2ccccn2)nc(SCC(=O)c2ccc(F)cc2)c1Cl`, the IC50 is 7.37 µM, the IC90 was found to be 13.8 µM and the CC50 was more than 40 µM.

In the case of `CCOC(=O)CSc1nc(N)c(C#N)c(-c2ccc(OCC)cc2)c1C#N`, the IC50 is 0.472 µM and the IC90 was determined as 1.32 µM.

`COc1ccc(C2CC(=O)N3C(=C2C#N)SCC3(O)c2ccccc2)cc1` (stereo not given): the IC50 was 7 µM, the IC90 turned out to be 12 µM and the CC50 is more than 40 µM.

Regarding `CCOC(=O)N1CCN(C(=O)CSc2nc(-c3cccc(C)c3)ns2)CC1`, the IC50 is 0.734 µM, the IC90 amounted to 0.828 µM and the CC50 is more than 40 µM.

For the compound `Cc1nn2c(N3CCN(C)CC3)cc(C(C)(C)C)nc2c1-c1ccccc1`, the IC50 is 3.03 µM, the IC90 was 4.55 µM and the CC50 amounted to 25.3 µM.

Regarding `CCOc1ccc(NCC(=O)Nc2ccc(Cl)cc2C)cc1`, the IC50 is 8.53 µM and the IC90 was more than 100 µM.

Take `c1cnc2c(c1)ccc1cccnc12`: the IC50 was 4.46 µM, the IC90 is 8.17 µM and the CC50 came to 3.98 µM.

`COc1ccc(/C=C/C(=O)c2ccc(C)c([N+](=O)[O-])c2)cc1O` showed an IC90 of more than 100 µM and a CC50 of 34.8 µM.

For `O=C(Nc1ccc(Nc2ccncc2)cc1)c1ccc(Nc2ccnc3ccc([N+](=O)[O-])cc23)cc1[N+](=O)[O-]`, the IC50 is 1.39 µM, the IC90 stood at 1.57 µM and the CC50 is more than 40 µM.

Regarding `COc1ccc2nc(N=Nc3ccc(O)c4ccccc34)sc2c1`, the IC50 is 5.17 µM, the 90% effect concentration (IC90) stood at 10.1 µM and the CC50 is 4.6 µM.

Regarding `COc1ccc2cc(C(=O)C3CCCN(Cc4cccc(C)n4)C3)ccc2c1` (stereo not given), the IC50 is 7 µM, the IC90 came to 14.7 µM and the CC50 is more than 40 µM.

Consider `O=C(CSCc1nc2ccccc2[nH]1)Nc1ccc(Oc2ccccc2)cc1`, for which the IC50 was 22.9 µM, the IC90 is more than 100 µM and the CC50 is more than 40 µM.

As to `CCCCOC(=O)c1ccc(NC(=O)CSc2nnnn2C)cc1`, the IC50 is 19 µM and the IC90 is more than 100 µM.

`CS(=O)(=O)Nc1cccc2cccnc12`: the IC50 was 11.7 µM, the IC90 is 12.9 µM and the CC50 is more than 40 µM.

With `c1ccc2c(NC3C4CC5CC(C4)CC3C5)nc(N3CCOCC3)nc2c1` (stereo not given), the IC50 was 1.89 µM, the IC90 was determined as 3.08 µM and the CC50 is 27.9 µM.

Turning to `CCn1c(NC(=O)c2cccc(Cn3cc(Cl)cn3)c2)nc2ccccc21`, the IC50 was 3.65 µM, the 90% effect concentration (IC90) is more than 100 µM and the CC50 was more than 40 µM.

On to `OC(CN1CCN(c2ccccn2)CC1)Cn1c2ccc(Cl)cc2c2cc(Cl)ccc21` (stereo not given), for which the IC50 is 2.31 µM, the IC90 was determined as 3.12 µM and the CC50 came out at 21.5 µM.

Consider `O=C(Nc1ccc(-c2csnn2)cc1)C1CC1`, for which the IC90 is more than 100 µM.

Regarding `COc1cc(-c2nnc(SCC(=O)OC3CCCCC3)o2)cc(OC)c1OC`, the IC50 is less than 0.195 µM and the IC90 was 1.78 µM.

In the case of `O=C(c1ccc(F)cc1)C(CN1CCOCC1)c1ccccc1` (stereo not given), the IC50 is 6.14 µM, the IC90 amounted to 7.01 µM and the CC50 was determined as 20.7 µM.

For the compound `FC(F)(F)c1ccc(CN2C[C@@H]3C(c4ccc(Cl)nc4)C4(c5cccnc5)CC3(C4)[C@H]2c2ccccc2)cc1` (stereo not given in full), the IC50 is 8.98 µM, the IC90 was found to be 18 µM and the CC50 is more than 40 µM.

On to `c1ccc(C2[C@H]3CN(CC4CCCCC4)[C@H](c4ccccc4)C34CC2(c2cccnc2)C4)cc1` (stereo not given in full), for which the IC50 was 15 µM and the concentration for an effect of 90% (IC90) was found to be 23.4 µM.

Regarding `CCn1cc(C(=O)O)c(=O)c2cc(F)c(N3CCNCC3)cc21`, the IC50 was 2.85 µM and the IC90 was found to be 3.11 µM.

In turn, `c1ccc(-c2cc3c(NCC4COc5ccccc5O4)ncnc3s2)cc1` (stereo not given) gave an IC90 of more than 100 µM and a CC50 of more than 40 µM.

Regarding `CC(C)Nc1cc(C(F)(F)F)nc(-c2ccccn2)n1`, the IC50 is 5.17 µM and the IC90 was more than 100 µM.

For the compound `Cc1ccc(C(=O)N2CCN(c3ccc(NC(=O)COc4ccccc4C)cc3)CC2)cc1`, the IC50 was 9.58 µM, the IC90 is more than 100 µM and the CC50 was more than 40 µM.

On to `COc1ccc(-c2nnc(NC(=O)c3ccccc3C)o2)cc1`, for which the IC50 was 0.944 µM, the IC90 was more than 100 µM and the CC50 was more than 40 µM.

In the case of `CC(C)Cc1cc(C(=O)Nc2c(F)cc(F)cc2Br)no1`, the IC50 was 6.59 µM and the IC90 was found to be 10.5 µM.

As to `C(=C\c1nc(N2CCCC2)c2ccccc2n1)/c1ccccc1`, the IC50 was 5.33 µM, the IC90 was determined as 7.91 µM and the CC50 is more than 40 µM.

In the case of `O=C(CSc1ccc(-c2ccccn2)nn1)c1ccc(F)cc1`, the IC50 was 22.2 µM and the IC90 was 36 µM.

In the case of `COc1ccc(-c2n(CC(=O)OC3CC(C)CCC3C(C)C)c3ccccc3[n+]2C)cc1` (stereo not given), the IC50 is 0.985 µM, the IC90 amounted to 2.37 µM and the CC50 turned out to be 23.9 µM.

Take `O=C(COc1cccc(Cl)c1)Nc1ccc2c(c1)CCC2`: the IC50 is 22.4 µM and the IC90 is more than 100 µM.

`O=C1CCCC(O)=C1C=Nc1ccc2c(c1)oc1ccccc12`: the IC50 is less than 0.195 µM and the IC90 was more than 100 µM.

On to `Cc1ccc2c(c1)c1ncnc(N3CCc4ccccc4C3)c1n2C`, for which the IC50 is 6.39 µM and the IC90 turned out to be 11.2 µM.

With `COCCN=C1Sc2nc3ccc(C)cc3cc2CN1Cc1cccs1`, the IC50 was 10.6 µM and the IC90 is 13.8 µM.

Turning to `OC(CNCc1ccco1)Cn1c2ccc(Br)cc2c2cc(Br)ccc21` (stereo not given), the IC50 is 2.76 µM, the IC90 was 3.11 µM and the CC50 is 17.2 µM.

For the compound `Cc1cc(C2N=C(N)Nc3nc4ccccc4n32)c(C)n1-c1ccccc1Cl` (stereo not given), the IC50 was 7.61 µM and the IC90 turned out to be 12.2 µM.

In turn, `O=C(/C=C/c1ccc(Cl)cc1Cl)N1CCN(c2ccc([N+](=O)[O-])c(N3CCOCC3)c2)CC1` displayed a CC50 of more than 40 µM.

For `COC(=O)CN1C(c2ccc(OC)cc2)=Nc2ccc(Cl)cc2C1c1ccccc1` (stereo not given), the IC50 was 3.18 µM and the IC90 worked out at 6.98 µM.

In the case of `COc1ccc(-c2csc(-c3cccs3)n2)cc1OC`, the half-maximal inhibitory concentration (IC50) is 11.3 µM and the IC90 is more than 100 µM.

`CC1CCCCN1C(=O)COC(=O)/C=C/c1ccc2ccccc2n1` (stereo not given): the IC50 is 0.807 µM, the IC90 stood at 5.9 µM and the CC50 was more than 40 µM.

With `CCOC(=O)c1sc(NC(=O)CNCc2ccccn2)c(C(=O)OCC)c1C`, the IC50 was 2.77 µM, the IC90 came to 4.22 µM and the CC50 is more than 40 µM.

Turning to `CCN(CC)CCN1c2ccccc2Sc2ccc3ccccc3c21`, the 50% inhibitory concentration (IC50) is 10.4 µM, the IC90 was found to be 18.9 µM and the CC50 was more than 40 µM.

The term IC50 denotes the point on the concentration scale where inhibition reaches its midpoint. The IC90 is the point of the concentration-response curve where the effect stands at 90%. Low readings indicate an effect from little substance, high ones a need for much substance. As a reminder, the CC50 is the concentration at which the toxic effect on the cells reaches its halfway point.
